{"source": "paper PMC7827406", "about": "“Structure–Activity Relationship (SAR) Study of Spautin-1 to Entail the Discovery of Novel NEK4 Inhibitors” (International Journal of Molecular Sciences, 2021)", "key": {"LKB1(h)": {"molecular_target": "T1, LKB1(h) (Homo sapiens, UniProt Q15831)", "T1 construct": "gene STK11", "T1 sequence (Q15831 1-433)": "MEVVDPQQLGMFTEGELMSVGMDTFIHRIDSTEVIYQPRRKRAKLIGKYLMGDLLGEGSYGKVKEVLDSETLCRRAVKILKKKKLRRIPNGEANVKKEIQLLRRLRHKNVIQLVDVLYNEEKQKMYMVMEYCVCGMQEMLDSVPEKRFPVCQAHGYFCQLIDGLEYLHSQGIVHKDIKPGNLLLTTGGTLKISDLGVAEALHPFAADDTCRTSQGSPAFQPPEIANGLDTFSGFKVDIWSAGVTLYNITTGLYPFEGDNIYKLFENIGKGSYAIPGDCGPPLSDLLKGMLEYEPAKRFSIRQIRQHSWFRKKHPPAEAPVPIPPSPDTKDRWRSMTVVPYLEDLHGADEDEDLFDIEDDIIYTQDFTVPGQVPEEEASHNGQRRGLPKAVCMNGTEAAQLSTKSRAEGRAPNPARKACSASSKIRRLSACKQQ", "T1 sequence (Q7RTN6 1-431 partner)": "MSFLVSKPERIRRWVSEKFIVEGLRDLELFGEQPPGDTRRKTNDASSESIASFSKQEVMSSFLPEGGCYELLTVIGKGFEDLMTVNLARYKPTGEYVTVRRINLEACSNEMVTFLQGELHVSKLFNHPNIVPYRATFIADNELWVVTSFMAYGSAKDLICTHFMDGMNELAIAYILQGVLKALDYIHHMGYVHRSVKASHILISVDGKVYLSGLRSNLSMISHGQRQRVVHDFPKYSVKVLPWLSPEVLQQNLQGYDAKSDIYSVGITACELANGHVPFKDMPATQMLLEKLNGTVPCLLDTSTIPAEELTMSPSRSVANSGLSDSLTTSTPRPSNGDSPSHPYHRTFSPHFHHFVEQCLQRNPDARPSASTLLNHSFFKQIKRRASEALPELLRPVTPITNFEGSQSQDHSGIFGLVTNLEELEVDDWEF", "T1 sequence (Q9Y376 1-341 partner)": "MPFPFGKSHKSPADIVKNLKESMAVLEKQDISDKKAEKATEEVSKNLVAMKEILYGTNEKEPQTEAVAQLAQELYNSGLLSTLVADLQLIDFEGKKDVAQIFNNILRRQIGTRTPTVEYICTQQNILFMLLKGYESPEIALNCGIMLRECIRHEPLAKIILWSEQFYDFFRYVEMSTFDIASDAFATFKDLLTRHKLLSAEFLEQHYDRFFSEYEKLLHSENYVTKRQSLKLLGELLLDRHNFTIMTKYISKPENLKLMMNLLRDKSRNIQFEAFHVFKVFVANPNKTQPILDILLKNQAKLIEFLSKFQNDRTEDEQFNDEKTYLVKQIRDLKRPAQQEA", "experiment": "biochemical", "set-up": "Eurofins KinaseProfiler full panel at Km ATP, residual kinase activity (%) relative to DMSO", "in_short": "(§1)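 Compounds screened at 10 µM in radiometric kinase activity assays at Km ATP, reported as remaining kinase activity (%). A KINOMEscan competition-binding screen at 10 µM measured DNA-tagged kinase retained on immobilized active-site ligand by qPCR.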"}, "EphA3(h)": {"molecular_target": "T2, EphA3(h) (Homo sapiens, UniProt P29320)", "T2 sequence (P29320 1-983)": "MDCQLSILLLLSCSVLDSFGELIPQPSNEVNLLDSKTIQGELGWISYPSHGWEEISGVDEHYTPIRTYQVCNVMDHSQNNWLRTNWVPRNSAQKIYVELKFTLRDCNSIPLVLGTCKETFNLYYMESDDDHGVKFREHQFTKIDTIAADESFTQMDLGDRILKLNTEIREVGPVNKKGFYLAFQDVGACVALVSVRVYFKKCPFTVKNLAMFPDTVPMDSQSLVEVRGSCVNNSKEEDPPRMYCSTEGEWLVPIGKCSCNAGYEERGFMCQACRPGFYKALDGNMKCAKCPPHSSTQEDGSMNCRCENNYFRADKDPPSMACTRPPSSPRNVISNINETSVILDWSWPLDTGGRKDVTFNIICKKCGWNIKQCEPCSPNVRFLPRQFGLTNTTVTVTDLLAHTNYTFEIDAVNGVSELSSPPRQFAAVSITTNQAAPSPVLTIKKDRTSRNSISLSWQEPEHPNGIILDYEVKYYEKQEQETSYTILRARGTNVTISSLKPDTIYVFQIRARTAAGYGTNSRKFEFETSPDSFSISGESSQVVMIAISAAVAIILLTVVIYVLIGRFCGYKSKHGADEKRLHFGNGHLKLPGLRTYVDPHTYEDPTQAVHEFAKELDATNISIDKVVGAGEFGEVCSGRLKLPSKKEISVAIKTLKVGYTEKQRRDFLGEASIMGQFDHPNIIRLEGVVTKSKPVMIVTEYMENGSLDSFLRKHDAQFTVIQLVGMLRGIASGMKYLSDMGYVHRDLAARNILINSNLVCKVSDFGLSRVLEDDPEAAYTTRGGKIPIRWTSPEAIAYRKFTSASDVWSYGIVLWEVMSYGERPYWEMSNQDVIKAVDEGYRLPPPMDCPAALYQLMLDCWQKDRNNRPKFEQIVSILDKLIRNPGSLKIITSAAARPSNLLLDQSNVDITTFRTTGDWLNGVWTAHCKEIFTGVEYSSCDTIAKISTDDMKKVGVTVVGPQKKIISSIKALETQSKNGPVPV", "experiment": "biochemical", "set-up": "Eurofins KinaseProfiler full panel at Km ATP, residual kinase activity (%) relative to DMSO", "in_short": "as §1"}, "[1]": {"conditions": "read-out: Residual activity (%) 5at"}, "[2]": {"conditions": "read-out: Residual activity (%) 5as"}, "[3]": {"conditions": "read-out: Residual activity (%) 5ay"}, "[4]": {"conditions": "read-out: Residual activity (%) Spautin-1 5aa"}}, "note": "Read-outs that look alike come from different tables or passages of the source."}
{"smiles": "Fc1ccc2ncnc(NCCc3ccc(Cl)cc3)c2c1", "note": "[5at, N-[2-(4-Chlorophenyl)Ethyl]-6-Fluoro-4-Quinazolinamine]", "values": [{"measurement": "remaining activity at 10 µM", "setting": "LKB1(h); [1]", "result": 73, "unit": "%"}, {"measurement": "remaining activity at 10 µM", "setting": "EphA3(h); [1]", "result": 94, "unit": "%"}]}
{"smiles": "Fc1ccc(CCNc2ncnc3ccc(F)cc23)cc1", "note": "[5as, 6-Fluoro-N-[2-(4-Fluorophenyl)Ethyl]-4-Quinazolinamine]", "values": [{"measurement": "remaining activity at 10 µM", "setting": "LKB1(h); [2]", "result": 81, "unit": "%"}, {"measurement": "remaining activity at 10 µM", "setting": "EphA3(h); [2]", "result": 108, "unit": "%"}]}
{"smiles": "COc1ccc2ncnc(Nc3cccc(F)c3)c2c1", "note": "[5ay, N-(3-Fluorophenyl)-6-Methoxy-4-Quinazolinamine]", "values": [{"measurement": "remaining activity at 10 µM", "setting": "LKB1(h); [3]", "result": 100, "unit": "%"}, {"measurement": "remaining activity at 10 µM", "setting": "EphA3(h); [3]", "result": 110, "unit": "%"}]}
{"smiles": "Fc1ccc(CNc2ncnc3ccc(F)cc23)cc1", "note": "[5aa, 6-Fluoro-N-(4-fluorobenzyl)-4-Quinazolinamine]", "values": [{"measurement": "remaining activity at 10 µM", "setting": "LKB1(h); [4]", "result": 86, "unit": "%"}, {"measurement": "remaining activity at 10 µM", "setting": "EphA3(h); [4]", "result": 116, "unit": "%"}]}
